# From patent US20260216238A1, “TETRATHIOMOLYBDIC ACID FOR USE IN TREATING COPPER METABOLISM-ASSOCIATED DISEASES OR DISORDERS (WILSON DISEASE)” (Alexion Pharmaceuticals, Inc., priority 2023, published 2026)
# Read-outs that look alike come from different tables or passages of the source.
# Tested on: participants with WD
# Conditions: for Daily Net Copper Balance, Change from Baseline, Mean: Table 10; for Decrease from Baseline in Average Daily Net Copper Balance, Mean (SD): Table 13
# Protocol: Study 204 is registered with ClinicalTrials.gov, number NCT04573309, and is described in Example 1 of U.S. Provisional Patent Application No. 63/237,120, filed Aug. 25, 2021, and incorporated by reference herein. […] The participants remained on a Cu-controlled diet, and Cu and Mo balance were measured on all intake (i.e., investigational agent, food and fluids) and all output (urine and feces). The Cu and Mo concentration of each sample was determined by inductively coupled plasma mass spectrometry (ICP-MS). Copper and Mo content of all intake and output was calculated based on the volume or weight of intake and output and the concentration of representative samples.
# Collection periods for feces and urine varied in duration from 3 to 15 days to support assessment of both Cu and Mo balance before and at steady state for both 15 mg and 30 mg. Equilibration periods on Cu/Mo-controlled diets were a minimum of 48 hours. Copper balance was calculated as the mean daily Cu balance over each of the 4 collection periods. The interpretation of Cu balance was based on the criteria previously established when undertaking Cu balance studies with zinc treatment.
# These participants had all intake (food and drink) and output (urine and feces) collected from Day −4 through Day −1 (baseline), from Day 1 through Day 8, and Day 25 through Day 39.
# [1] = Days 1-8 (Accumulation 15 mg/day)
# [2] = Days 25-28 (Steady State 15 mg/day)
# [3] = Days 31-35 (Accumulation 30 mg/day)
# [4] = Days 36-39 (Steady State 30 mg/day)
substance,measurement,setting,value
bis-choline tetrathiomolybdate [TTM],"Daily Net Copper Balance, Change from Baseline, Median",[1],-0.4291 mg
same,"Daily Net Copper Balance, Value, Median",[1],0.6678 mg
same,"Increase from Baseline in Average Daily Fecal Copper Excretion, Mean",[1],0.3278 mg
same,"Increase from Baseline in Average Daily Urine Copper Excretion, Mean",[1],-0.0108 mg
same,"Daily Net Copper Balance, Value, Mean","Days 1-8 (Accumulation 15 mg/day), N=3",0.7654 mg
same,"Daily Net Copper Balance, Change from Baseline, Mean",[1],-0.4848 mg
same,"Decrease from Baseline in Average Daily Net Copper Balance, Mean (SD)",[1],−0.4848(0.119) mg
same,"Decrease from Baseline in Average Daily Net Copper Balance, Mean (SD)",Days 1-39,−0.448 (0.1469) mg
same,"Daily Net Copper Balance, Change from Baseline, Median",[2],-0.1459 mg
same,"Daily Net Copper Balance, Value, Mean",[2],0.7638 mg
same,"Daily Net Copper Balance, Value, Median",[2],1.1434 mg
same,"Increase from Baseline in Average Daily Fecal Copper Excretion, Mean",[2],0.4931 mg
same,"Increase from Baseline in Average Daily Urine Copper Excretion, Mean",[2],0.1042 mg
same,"Daily Net Copper Balance, Change from Baseline, Mean",[2],-0.4865 mg
same,"Decrease from Baseline in Average Daily Net Copper Balance, Mean (SD)",[2],−0.6381 (0.7673) mg
same,"Daily Net Copper Balance, Change from Baseline, Median",[3],-0.3707 mg
same,"Daily Net Copper Balance, Value, Mean",[3],0.8577 mg
same,"Daily Net Copper Balance, Value, Median",[3],0.8312 mg
same,"Increase from Baseline in Average Daily Fecal Copper Excretion, Mean",[3],0.3879 mg
same,"Increase from Baseline in Average Daily Urine Copper Excretion, Mean",[3],0.0744 mg
same,"Daily Net Copper Balance, Change from Baseline, Mean",[3],-0.3925 mg
same,"Decrease from Baseline in Average Daily Net Copper Balance, Mean (SD)",[3],−0.3925 (0.05781) mg
same,"Daily Net Copper Balance, Change from Baseline, Median",[4],-0.4225 mg
same,"Daily Net Copper Balance, Value, Mean",[4],0.8582 mg
same,"Daily Net Copper Balance, Value, Median",[4],0.7986 mg
same,"Increase from Baseline in Average Daily Fecal Copper Excretion, Mean",[4],0.0899 mg
same,"Increase from Baseline in Average Daily Urine Copper Excretion, Mean",[4],0.1042 mg
same,"Daily Net Copper Balance, Change from Baseline, Mean",[4],-0.3921 mg
same,"Decrease from Baseline in Average Daily Net Copper Balance, Mean (SD)",[4],−0.2765 (0.3138) mg
